Test results: patent US7556807B2, “Signal peptides, nucleic acid molecules and methods for treatment of caries” (priority 2001, dated 2009)
“Also recorded” adds a separate entry of the source. No end group written: not given here.

Key:
[1] = test system: S. mutans wild-type UA159; experiment: S. mutans biofilms formed on polystyrene microtiter plates (b), SDM-glucose, safranin (first study); type: cell-based, Streptococcus mutans; settings: 5 μg/ml of peptide analog; ↓ = reduced biomass compared to biofilm grown in presence of wild-type CSP
Protocol: Biofilms were developed in 96-well polystyrene microtiter plates. […] Wells without cells were used as blank controls. […] After the incubation, the planktonic cells were carefully removed and the plates were air dried overnight. The plates were then stained with 0.01% (wt/vol) safranin for 10 min, rinsed with sterile distilled water and air dried. Biofilms were quantified by measuring the absorbance of stained biofilms at 490 nm with a microplate reader (model 3550; Bio-Rad Laboratories, Richmond, Calif.).

[2] = test system: S. mutans wild-type UA159; experiment: S. mutans acid resistance assay (growth in THYE at pH 7.5 and pH 5.5); type: cell-based, Streptococcus mutans; settings: 5 μg/ml of peptide analog; for Growth (pH 7.5): THYE pH 7.5; for Acid resistance (pH 5.5): growth in THYE pH 5.5
Protocol: The effect of peptides on acid tolerance was evaluated by assessment of growth in THYE at pH 7.5 and pH 5.5. Overnight S. mutans wild-type UA159 cells were diluted (1:20) with prewarmed THYE broth and incubated at 37° C. in air with 5% CO2 until an OD600 of approximately 0.4 was reached. A 20-fold dilution was made into 400 μl of either THYE pH 7.5 or THYE pH 5.5 broth containing different concentrations (0, 0.1, 0.5, 2, and 5 μg per ml) of peptide analogs and added in the individual wells of a 100-well Bioscreen C plate in triplicate. Wells without cells were used as blank controls. A Bioscreen microbiology reader (Labsystems, Helsinki, Finland) was employed to continuously grow cells and measure cell growth for 16 h at 37° C. Measurements were taken every 20 min with shaking to prevent cell aggregation.

[3] = test system: S. mutans wild-type UA159; experiment: S. mutans competence assay (genetic transformation with plasmid pDL289); type: cell-based, Streptococcus mutans; settings: 5 μg/ml of peptide analog; for Transformation efficiency (vs no CSP): compared with natural transformation without exogenous CSP, 'no effect' = no significant difference by comparison with CSP; for Transformation efficiency (vs 5 μg CSP): compared with wild-type S. mutans CSP (5 μg CSP)
Protocol: To determine if the peptide analogs had any impact on the development of genetic competence, S. mutans UA159 wild-type cells were assayed for genetic transformation. Overnight cultures of S. mutans UA159 were diluted (1:20) with prewarmed THYE broth and incubated at 37° C. in air with 5% CO2 until an optical density (OD) of approximately 0.1 at 600 nm was reached. The culture was then divided into six aliquots containing 1 μg/ml of plasmid pDL289 and different concentrations (0, 0.1, 0.5, 2, and 5 μg per ml) of peptide analogs. The cultures were incubated at 37° C. in air with 5% CO2 for 2.5 h, gently sonicated for 10 s to disperse the streptococcal chains, and spread on THYE plates containing kanamycin. Plates were incubated at 37° C. in air with 5% CO2 for 48 h. Total recipient cells were counted by spreading serial dilutions on THYE agar plates without antibiotic. Transformation efficiency was expressed as the percentage of kanamycin resistant transformants over the total number of recipient cells.

S. gordonii = experiment: Growth and biofilm formation on polystyrene microtiter plates, crystal violet; type: cell-based, Streptococcus gordonii; settings: for Biofilm formation: additional studies
Protocol: (§1) They were grown in Todd-Hewitt broth containing 0.3% yeast extract (THYE) at pH 5.5 or 7.5. […] In liquid media, cultures were incubated in closed screw-cap tubes without agitation at 37° C. in an anaerobic chamber (5% CO2).
(§2) Wells without cells were used as blank controls.

S. pneumoniae = experiment: as above; type: cell-based, Streptococcus pneumoniae; settings: for Biofilm formation: additional studies
Protocol: as §1, §2

S. oralis = experiment: as above; type: cell-based, Streptococcus oralis; settings: for Biofilm formation: additional studies
Protocol: as §1, §2

S. mitis = experiment: as above; type: cell-based, Streptococcus mitis; settings: for Biofilm formation: additional studies
Protocol: as §1, §2

S. sobrinus = experiment: as above; type: cell-based, Streptococcus sobrinus; settings: for Biofilm formation: additional studies
Protocol: as §1, §2

S. sanguis = experiment: as above; type: cell-based, Streptococcus sanguis; settings: for Biofilm formation: additional studies
Protocol: as §1, §2

[4] = test system: mixed culture of the above Streptococcus spp.; experiment: Mixed culture biofilm formation; type: cell-based; settings: data not shown
Source text: as §2

A2: S. mutans CSP analog, 5th residue removed from C′ (SGSLSTFFRLFNASFTQALGK; E2 peptide analog)
Bioflim formation (SDM-glucose) [1]: no effect
Growth (pH 7.5) [2]: no effect
Acid resistance (pH 5.5) [2]: significant decrease in cell growth

B1: S. mutans CSP analog, 2nd residue removed from N′ (SGSLSTFFRLFNRSFTQALK; F1 peptide analog)
Transformation efficiency (vs no CSP) [3]: no effect
Transformation efficiency (vs 5 μg CSP) [3]: no significant effect
Bioflim formation (SDM-glucose) [1]: no effect
Growth (pH 7.5) [2]: ↓growth
Acid resistance (pH 5.5) [2]: growth

C1: S. mutans CSP analog, 3rd residue removed from N′ (SGSLSTFFRLFNRSFTQAGK; G1 peptide analog)
Transformation efficiency (vs no CSP) [3]: no effect
Transformation efficiency (vs 5 μg CSP) [3]: no significant effect
Bioflim formation (SDM-glucose) [1]: no effect
Growth (pH 7.5) [2]: ↓growth
Acid resistance (pH 5.5) [2]: growth

D1: S. mutans CSP analog, 4th residue removed from N′ (SGSLSTFFRLFNRSFTQLGK; H1 peptide analog)
Bioflim formation (SDM-glucose) [1]: no effect
Growth (pH 7.5) [2]: ↓growth
Acid resistance (pH 5.5) [2]: growth

E1: S. mutans CSP analog, 5th residue removed from N′ (SGSLSTFFRLFNRSFTALGK; A2 peptide analog)
Bioflim formation (SDM-glucose) [1]: no effect
Growth (pH 7.5) [2]: ↓growth
Acid resistance (pH 5.5) [2]: growth

F1: S. mutans CSP analog, 2nd residue removed from C′ (SGSLSTFFVLFNRSFTQALGK; B2 peptide analog)
Biofilm formation (S. gordonii): significantly reduce biofilm formation
Biofilm formation (S. pneumoniae): significantly reduce biofilm formation
Biofilm formation (S. oralis): significantly reduce biofilm formation
Biofilm formation (S. mitis): significantly reduce biofilm formation
Biofilm formation (S. sobrinus): significantly reduce biofilm formation
Biofilm formation (S. sanguis): significantly reduce biofilm formation
Growth (pH 7.5) [2]: diminution of cell growth
Acid resistance (pH 5.5) [2]: diminution of cell growth

G1: S. mutans CSP analog, 3rd residue removed from C′ (SGSLSTFFALFNRSFTQALGK; C2 peptide analog)
Growth (pH 7.5) [2]: ↓growth
Acid resistance (pH 5.5) [2]: growth

IH-1: S. mutans CSP analog, 1st residue removed from N′ (SGSSTFFRLFNRSFTQALGK; D1 peptide analog)
Transformation efficiency (vs no CSP) [3]: no effect^a
Transformation efficiency (vs 5 μg CSP) [3]: no significant effect
Bioflim formation (SDM-glucose) [1]: no effect
Growth (pH 7.5) [2]: ↓growth
Acid resistance (pH 5.5) [2]: growth

IH-2: S. mutans CSP analog, 1st residue removed from C′ (SGSLTFFRLFNRSFTQALGK; E1 peptide analog)
Transformation efficiency (vs no CSP) [3]: no effect
Transformation efficiency (vs 5 μg CSP) [3]: no significant effect
Bioflim formation (SDM-glucose) [1]: no effect
Growth (pH 7.5) [2]: ↓growth
Acid resistance (pH 5.5) [2]: growth

SGSLSTFFALFNRSFTQALGK (SGSLSTFFRLFNRSFTQALGA; G2 peptide analog) [C2, S. mutans CSP analog, substitution of 1st R residue with A]
Biofilm formation (S. gordonii): significantly reduce biofilm formation
Biofilm formation (S. pneumoniae): significantly reduce biofilm formation
Biofilm formation (S. oralis): significantly reduce biofilm formation
Biofilm formation (S. mitis): significantly reduce biofilm formation
Bioflim formation (SDM-glucose) [1]: no effect
Biofilm formation (S. sobrinus): significantly reduce biofilm formation
Biofilm formation (S. sanguis): significantly reduce biofilm formation
Growth (pH 7.5) [2]: no effect
Acid resistance (pH 5.5) [2]: significant decrease in cell growth

SGSLSTFFRLFNASFTQALGK [E2]
Growth (S. gordonii; 5 μg/ml): inhibitory effects
Biofilm formation (S. gordonii): significantly reduce biofilm formation
Growth (S. pneumoniae; 5 μg/ml): inhibitory effects
Biofilm formation (S. pneumoniae): significantly reduce biofilm formation
Growth (S. oralis; 5 μg/ml): inhibitory effects
Biofilm formation (S. oralis): significantly reduce biofilm formation
Mixed culture biofilm formation [4]: significant inhibitory effect
Growth (S. mitis; 5 μg/ml): inhibitory effects
Biofilm formation (S. mitis): significantly reduce biofilm formation
Growth (S. sobrinus; 5 μg/ml): inhibitory effects
Biofilm formation (S. sobrinus): significantly reduce biofilm formation
Growth (S. sanguis; 5 μg/ml): inhibitory effects
Biofilm formation (S. sanguis): significantly reduce biofilm formation
Growth (pH 7.5) [2]: no effect; also recorded: without affecting the cell growth
Acid resistance (pH 5.5) [2]: significant decrease in cell growth; also recorded: inhibited cell growth

SGSLSTFFRLFNRSFTQALGA [G2, S. mutans CSP analog, substitution of K residue with A]
Growth (pH 7.5) [2]: diminution of cell growth
Acid resistance (pH 5.5) [2]: diminution of cell growth

SGSLSTFFRLFNRSFTQALGV [F2, S. mutans CSP analog, substitution of K residue with V]
Growth (pH 7.5) [2]: diminution of cell growth
Acid resistance (pH 5.5) [2]: diminution of cell growth

SGSLSTFFRLFNVSFTQALGK [D2, S. mutans CSP analog, substitution of 2nd R residue with V]
Bioflim formation (SDM-glucose) [1]: no effect
Growth (pH 7.5) [2]: no effect
Acid resistance (pH 5.5) [2]: significant decrease in cell growth

SGSLSTFFVLFNRSFTQALGK (SGSLSTFFRLFNRSFTQALGV; F2 peptide analog) [B2, S. mutans CSP analog, substitution of 1st R residue with V]
Bioflim formation (SDM-glucose) [1]: no effect
Growth (pH 7.5) [2]: no effect
Acid resistance (pH 5.5) [2]: significant decrease in cell growth

SGTLSTFFRLFNRSFTQALGK [B3]
Biofilm formation (S. gordonii): significantly reduce biofilm formation
Biofilm formation (S. pneumoniae): significantly reduce biofilm formation
Biofilm formation (S. oralis): significantly reduce biofilm formation
Biofilm formation (S. mitis): significantly reduce biofilm formation
Biofilm formation (S. sobrinus): significantly reduce biofilm formation
Biofilm formation (S. sanguis): significantly reduce biofilm formation
Growth (pH 7.5) [2]: no effect
Acid resistance (pH 5.5) [2]: significant decrease in cell growth
